How the values were obtained:
EAE model [1] = test: Clinical disease ameliorating effect in rat EAE (multiple sclerosis) model; assay type: in vivo, DA strain rats; details: DA rats
EAE model [2] = test: Histological evaluation of spinal cord inflammation in rat EAE model; assay type: in vivo, DA strain rats; details: 10 mg/kg once a day through a feeding tube, 12 days after immunization
[3] = 10 mg/kg once a day through a feeding tube

Structure (SMILES): CC(C)C(=O)c1c(C(C)C)nn2ccccc12 [ibudilast]
- clinical disease condition (clinical score) versus control group (EAE model [1]; 2 mg/kg once a day through a feeding tube): tendency of amelioration
- body weight decrease (EAE model [1]; [3]): suppressed significantly
- clinical disease condition (clinical score) versus control group (EAE model [1]; [3]): significant amelioration
- disease onset (EAE model [1]; ibudilast-treated group, oral once a day): delayed
- histological effect in comparison with the control (EAE model [2]): significant effect histologically
- average histological score (inflammation, lumbar spinal cord, hematoxylin-eosin) (EAE model [2]; score scale 0-4): about 2.0

Reference: patent US6395747B1, “Remedies for multiple sclerosis” (Kyorin Pharmaceutical Co., Ltd., priority 2001, dated 2002)
